Experimental data published in the supplement of paper PMC10307832.

Legend:
Assay in all cases: relative viability (nuclei count vs DMSO), 5 days (fraction); higher = more cells survive
IMD-0354 + Dasatinib = compound: O=C(Nc1cc(C(F)(F)F)cc(C(F)(F)F)c1)c1cc(Cl)ccc1O [IMD-0354] + Cc1nc(Nc2ncc(C(=O)Nc3c(C)cccc3Cl)s2)cc(N2CCN(CCO)CC2)n1 [Dasatinib] (partner 0.075 µM)
Procedure, shortened: (§1)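 Lung cancer cell lines were pin-tool dosed in 1536-well plates on the day after seeding, with either a lone drug or a fixed anchor-drug dose plus five library-drug doses (not always all listed) in √10 steps. Nuclei were counted on 4× images after 5 days. Relative viability is the ratio of treated-well to vehicle-well nuclei counts, with each value a median of duplicate plates.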

CX-5461 + Crizotinib = compound: Cc1cnc(CNC(=O)c2c(=O)c3ccc(N4CCCN(C)CC4)nc3n3c2sc2ccccc23)cn1 [CX-5461] + C[C@@H](Oc1cc(-c2cnn(C3CCNCC3)c2)cnc1N)c1c(Cl)ccc(F)c1Cl [Crizotinib] (partner 1 µM)
Procedure, shortened: as §1

IMD-0354 + Navitoclax = compound: O=C(Nc1cc(C(F)(F)F)cc(C(F)(F)F)c1)c1cc(Cl)ccc1O [IMD-0354] + CC1(C)CCC(c2ccc(Cl)cc2)=C(CN2CCN(c3ccc(C(=O)NS(=O)(=O)c4ccc(N[C@H](CCN5CCOCC5)CSc5ccccc5)c(S(=O)(=O)C(F)(F)F)c4)cc3)CC2)C1 [Navitoclax] (partner 0.5 µM)
Procedure, shortened: as §1

IMD-0354 + Luminespib = compound: O=C(Nc1cc(C(F)(F)F)cc(C(F)(F)F)c1)c1cc(Cl)ccc1O [IMD-0354] + CCNC(=O)c1noc(-c2cc(C(C)C)c(O)cc2O)c1-c1ccc(CN2CCOCC2)cc1 [Luminespib] (partner 0.01 µM)
Procedure, shortened: as §1

Cell Line | relative viability (IMD-0354 + Dasatinib; first compound 0.04 µM) | relative viability (IMD-0354 + Dasatinib; first compound 0.1265 µM) | relative viability (IMD-0354 + Dasatinib; first compound 0.4 µM) | relative viability (IMD-0354 + Dasatinib; first compound 1.265 µM) | relative viability (IMD-0354 + Dasatinib; first compound 4 µM) | relative viability (CX-5461 + Crizotinib; first compound 0.01 µM) | relative viability (CX-5461 + Crizotinib; first compound 0.03162 µM) | relative viability (CX-5461 + Crizotinib; first compound 0.1 µM) | relative viability (CX-5461 + Crizotinib; first compound 0.3162 µM) | relative viability (CX-5461 + Crizotinib; first compound 1 µM) | relative viability (IMD-0354 + Navitoclax; first compound 0.04 µM) | relative viability (IMD-0354 + Navitoclax; first compound 0.1265 µM) | relative viability (IMD-0354 + Navitoclax; first compound 0.4 µM) | relative viability (IMD-0354 + Navitoclax; first compound 1.265 µM) | relative viability (IMD-0354 + Navitoclax; first compound 4 µM) | relative viability (IMD-0354 + Luminespib; first compound 0.04 µM) | relative viability (IMD-0354 + Luminespib; first compound 0.1265 µM) | relative viability (IMD-0354 + Luminespib; first compound 0.4 µM) | relative viability (IMD-0354 + Luminespib; first compound 1.265 µM) | relative viability (IMD-0354 + Luminespib; first compound 4 µM)
LOU-NH91 | 0.616 | 0.555 | 0.258 | 0.102 | 0.205 | 0.756 | 0.784 | 0.745 | 0.728 | 0.759 | 0.734 | 0.712 | 0.396 | 0.135 | 0.165 | 0.348 | 0.334 | 0.32 | 0.176 | 0.213
NCI-H358 | 0.148 | 0.193 | 0.139 | 0.103 | 0.0831 | 0.524 | 0.57 | 0.365 | 0.26 | 0.174 |  |  |  |  |  | 0.292 | 0.286 | 0.305 | 0.322 | 0.167
NCI-H522 | 0.845 | 0.904 | 0.556 | 0.573 | 0.404 |  |  |  |  |  |  |  |  |  |  | 1.03 | 0.908 | 1.2 | 0.813 | 0.505
NCI-H650 | 0.514 | 0.484 | 0.404 | 0.264 | 0.197 | 0.666 | 0.961 | 0.668 | 0.309 | 0.631 |  |  |  |  |  | 0.791 | 0.873 | 0.59 | 0.381 | 0.167
NCI-H661 | 0.903 | 1.04 | 0.533 | 0.197 | 0.234 | 1.01 | 1.08 | 1.02 | 0.615 | 0.944 |  |  |  |  |  | 0.971 | 0.946 | 0.364 | 0.254 | 0.217
NCI-H1299 |  |  |  |  |  | 0.961 | 0.99 | 0.991 | 0.959 | 0.863 | 0.981 | 1.08 | 0.259 | 0.442 | 0.146 |  |  |  |  | 
NCI-H1395 | 0.432 | 0.47 | 0.385 | 0.372 | 0.291 |  |  |  |  |  | 1.15 | 1.24 | 0.931 | 0.389 | 0.311 | 0.73 | 0.586 | 0.675 | 0.362 | 0.314
NCI-H1563 | 0.482 | 0.462 | 0.422 | 0.367 | 0.211 | 0.865 | 0.725 | 0.774 | 0.675 | 0.464 |  |  |  |  |  | 0.232 | 0.57 | 0.5 | 0.492 | 0.206
NCI-H1623 | 0.551 | 0.52 | 0.499 | 0.24 | 0.348 |  |  |  |  |  |  |  |  |  |  | 0.405 | 0.369 | 0.461 | 0.332 | 0.287
NCI-H1703 |  |  |  |  |  | 0.783 | 0.852 | 0.77 | 0.663 | 0.343 | 1.37 | 1.12 | 0.843 | 0.131 | 0.115 |  |  |  |  | 
NCI-H1793 | 0.399 | 0.413 | 0.241 | 0.16 | 0.154 |  |  |  |  |  | 0.356 | 0.472 | 0.391 | 0.282 | 0.246 | 0.149 | 0.159 | 0.152 | 0.143 | 0.175
NCI-H2342 | 0.329 | 0.326 | 0.236 | 0.312 | 0.327 |  |  |  |  |  |  |  |  |  |  | 0.771 | 0.746 | 0.629 | 0.699 | 0.388
SW 900 | 0.51 | 0.492 | 0.462 | 0.0924 | 0.18 |  |  |  |  |  |  |  |  |  |  | 0.187 | 0.162 | 0.178 | 0.143 | 0.161
